{"source": "patent US20030044472A1", "about": "“METHOD AND SYNERGISTIC COMPOSITION FOR TREATING ATTENTION DEFICIT/HYPERACTIVITY DISORDER” (DexGen-Intellectual Property, Homocysteine, Inc., priority 2001, published 2003)", "origin": "cited, not measured here", "key": {"ADHD children [1]": {"system": "ADHD children", "details": "supplements at 6 mg/lb. of the child"}, "ADHD children [2]": {"system": "ADHD children", "details": "double blind clinical study"}}, "note": "Structures can show the parent of a compound that is named as a salt."}
{"smiles": "[Mg+2]", "note": "[magnesium]", "values": [{"measurement": "hyperactivity", "setting": "ADHD children [1]", "value": "a decrease in hyperactivity"}]}
{"smiles": "COC(=O)C(c1ccccc1)C1CCCCN1", "note": "(centres unmarked) [Ritalin, methylphenidate hydrochloride]", "values": [{"measurement": "test score improvements vs. placebo", "setting": "ADHD children [2]", "value": "significant test score improvements"}]}
